This assay addresses T1, human β3 adrenergic receptor (Homo sapiens, UniProt P13945).
T1 construct: expressed in transfected cells; host or cells: Chinese hamster ovary (CHO) cells, stably transfected
The experiment in a line: Functional assay: cAMP production (LANCE TR-FRET) in CHO cells stably transfected with cloned β3 adrenergic receptor. The format is cell-based. In short, it runs like this: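 Agonist-stimulated cAMP in CHO cells stably expressing human β3 receptor, 6,000 cells per well in HBSS/HEPES/0.1% BSA with 0.6 mM IBMX, 30 min at room temperature. LANCE TR-FRET readout converted to cAMP via standard curve; maximal stimulation defined with isoproterenol.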

Where [1] appears, read: Table 4, human β3 functional activity, read-out: Human β Binding.
[2] abbreviates: Table 5, read-out: Human β3 Functional.
The mark [3] stands for this setting: given as a range, cAMP, CHO cells, read-out: human β3 functional activity.
Setting [4] is: Table 7, β3AR-cAMP, read-out: Human β3 Functional.
Where [5] appears, read: Table 8, read-out: Human β3 Functional.
Setting [6] is: Table 9, read-out: Human β^3 Functional.

Each structure is given as a SMILES string. pEC50: −log10 of the molar value. Where two headings read alike, the source gives them in different places.

T1 sequence (P13945 whole entry): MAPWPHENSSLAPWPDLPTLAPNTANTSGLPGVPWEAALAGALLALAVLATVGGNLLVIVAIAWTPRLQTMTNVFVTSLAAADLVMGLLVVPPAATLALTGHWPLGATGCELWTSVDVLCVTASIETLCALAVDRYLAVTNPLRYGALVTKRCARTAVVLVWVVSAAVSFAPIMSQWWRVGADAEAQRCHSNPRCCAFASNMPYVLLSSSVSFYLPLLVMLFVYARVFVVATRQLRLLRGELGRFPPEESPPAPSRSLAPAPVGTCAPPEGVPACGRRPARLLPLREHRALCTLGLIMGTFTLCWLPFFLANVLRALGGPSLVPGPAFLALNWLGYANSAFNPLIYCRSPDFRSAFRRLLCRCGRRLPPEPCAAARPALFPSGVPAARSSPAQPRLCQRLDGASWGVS

Turning to `O=C(CN1CCCOC1=O)Nc1ccc(C[C@@H]2CC[C@H]([C@H](O)c3ccccc3)N2)cc1` [Example 98], under setting [1], the pEC50 was 8.00 to 9.00. Same read-out and setting: the value for `CN1CCCN(CC(=O)Nc2ccc(C[C@@H]3CC[C@H]([C@H](O)c4ccccc4)N3)cc2)C1=O` [Example 99] was 7.00 to 7.96.

In the case of `C[C@@H](C(=O)Nc1ccc(C[C@@H]2CC[C@H]([C@H](O)c3ccccc3)N2)cc1)c1csc(N)n1` [Example 104], the pEC50 under setting [2] is > 9.00.

With `C[C@H](C(=O)Nc1ccc(C[C@@H]2CC[C@H]([C@H](O)c3ccccc3)N2)cc1)c1csc(N)n1` [Example 105], under setting [2], the pEC50 is > 9.00. Still for that read-out and setting: the value for `O=C(Nc1ccc(CC2CCC(C(O)c3ccccc3)N2)cc1)C1Cc2ccccc2C1` (stereo not shown) [Example 106] was 7.00 to 7.96; that for `Nc1nc(C(CCF)C(=O)Nc2ccc(CC3CCC(C(O)c4ccccc4)N3)cc2)cs1` (stereo not shown) [Example 222] was > 9.00. As for `O=S(=O)(Nc1ccc(C[C@@H]2CC[C@H]([C@H](O)c3ccccc3)N2)cc1)c1ccc(-c2nc(-c3ccc(C(F)(F)F)cc3)cs2)cc1` [Example 233, N-[4-({(2S,5R)-5-[(R)-hydroxy(phenyl)methyl]pyrrolidin-2-yl}methyl)phenyl]-4-{4-[4-(trifluoromethyl)phenyl]-1,3-thiazol-2-yl}benzenesulfonamide], the pEC50 under setting [3] is 8.00 to 9.00. Turning to `O=S(=O)(Nc1ccc(C[C@@H]2CC[C@H]([C@H](O)c3ccccc3)N2)cc1)c1cccc2ccccc12` [Example 235], the pEC50 under setting [4] is 6.00 to 7.00. The same measure, in the same setting: the value for `O=S(=O)(Nc1ccc(C[C@@H]2CC[C@H]([C@H](O)c3ccccc3)N2)cc1)c1cccc2ccncc12` [Example 236] was 5.52 to 6.00; that for `O=S(=O)(Nc1ccc(C[C@@H]2CC[C@H]([C@H](O)c3ccccc3)N2)cc1)c1cccc2cccnc12` [Example 237] was 6.00 to 7.00. For `O=S(=O)(Nc1ccc(C[C@@H]2CC[C@H]([C@H](O)c3ccccc3)N2)cc1)c1cccc2ncccc12` [Example 238], the pEC50 under setting [4] was 6.00 to 7.00. Same read-out and setting: the value for `O=S(=O)(Nc1ccc(C[C@@H]2CC[C@H]([C@H](O)c3ccccc3)N2)cc1)c1ccc2ncsc2c1` [Example 239] was 7.00 to 7.96. Take `O=S(=O)(Nc1ccc(C[C@@H]2CC[C@H]([C@H](O)c3ccccc3)N2)cc1)c1ccc(-n2cccn2)cc1` [Example 240]: the pEC50 under setting [4] was 6.00 to 7.00.

`O=S(=O)(Nc1ccc(C[C@@H]2CC[C@H]([C@H](O)c3ccccc3)N2)cc1)c1ccc(-c2cocn2)cc1` [Example 241]: the pEC50 under setting [4] is 7.00 to 7.96.

`Cc1nnc(-c2cccc(S(=O)(=O)Nc3ccc(C[C@@H]4CC[C@H]([C@H](O)c5ccccc5)N4)cc3)c2)o1` [Example 242]: under setting [4], the pEC50 was 6.00 to 7.00. The same measure, in the same setting: the value for `Cc1nccc(-c2cccc(S(=O)(=O)Nc3ccc(C[C@@H]4CC[C@H]([C@H](O)c5ccccc5)N4)cc3)c2)n1` [Example 243] was 6.00 to 7.00; that for `Cn1cnc(S(=O)(=O)Nc2ccc(C[C@@H]3CC[C@H]([C@H](O)c4ccccc4)N3)cc2)c1` [Example 246] was 6.00 to 7.00; that for `Cc1nn(C)c(Cl)c1S(=O)(=O)Nc1ccc(C[C@@H]2CC[C@H]([C@H](O)c3ccccc3)N2)cc1` [Example 247] was 5.52 to 6.00. Still for that read-out and setting: the value for `O=S(=O)(Cc1ccccn1)Nc1ccc(C[C@@H]2CC[C@H]([C@H](O)c3ccccc3)N2)cc1` [Example 248] was 6.00 to 7.00; that for `O=S(=O)(Cc1cccnc1)Nc1ccc(C[C@@H]2CC[C@H]([C@H](O)c3ccccc3)N2)cc1` [Example 249] was 5.52 to 6.00. In the case of `O=S(=O)(Cc1ccncc1)Nc1ccc(C[C@@H]2CC[C@H]([C@H](O)c3ccccc3)N2)cc1` [Example 250], under setting [4], the pEC50 was 6.00 to 7.00. For the molecule `COc1cccc(NC(=O)Nc2ccc(C[C@@H]3CC[C@H]([C@H](O)c4ccccc4)N3)cc2)c1` [Example 251, N-[4-({(2S,5R)-5-[(R)-hydroxy(phenyl)methyl]pyrrolidin-2-yl}methyl)phenyl]-N′-(3-methoxyphenyl)urea], the pEC50 under setting [3] was 7.00 to 7.96. For `CC(NC(=O)Nc1ccc(C[C@@H]2CC[C@H]([C@H](O)c3ccccc3)N2)cc1)c1cscn1` (stereo partly shown) [Example 252], the pEC50 under setting [5] was 6.00 to 7.00.

On to `CN(Cc1cscn1)C(=O)Nc1ccc(C[C@@H]2CC[C@H]([C@H](O)c3ccccc3)N2)cc1` [Example 253], for which the pEC50 under setting [5] was 7.00 to 7.96. The same measure, in the same setting: the value for `O=C(NCc1ccccc1F)Nc1ccc(C[C@@H]2CC[C@H]([C@H](O)c3ccccc3)N2)cc1` [Example 254] was 6.00 to 7.00.

For `O=C(NCc1nnc(-c2ccccc2)[nH]1)Nc1ccc(C[C@@H]2CC[C@H]([C@H](O)c3ccccc3)N2)cc1` [Example 255], under setting [5], the pEC50 is 8.00 to 9.00. The same measure, in the same setting: the value for `Cc1cc(C)nc(CNC(=O)Nc2ccc(C[C@@H]3CC[C@H]([C@H](O)c4ccccc4)N3)cc2)n1` [Example 256] was 7.00 to 7.96; that for `O=C(Nc1ccc(C[C@@H]2CC[C@H]([C@H](O)c3ccccc3)N2)cc1)N1CCc2cccnc21` [Example 257] was 6.00 to 7.00. Consider `O=C(Nc1ccc(C[C@@H]2CC[C@H]([C@H](O)c3ccccc3)N2)cc1)N1CCC2(CCOC2=O)CC1` [Example 258], for which, under setting [5], the pEC50 was 6.00 to 7.00. Still for that read-out and setting: the value for `O=C1OC2(CCN(C(=O)Nc3ccc(C[C@@H]4CC[C@H]([C@H](O)c5ccccc5)N4)cc3)CC2)c2cnccc21` [Example 259] was 6.00 to 7.00. Take `C[C@H](NC(=O)c1ccccc1F)C(=O)Nc1ccc(C[C@@H]2CC[C@H]([C@H](O)c3ccccc3)N2)cc1` [Example 263, 2-Fluoro-N-((1S)-2-{[4-({(2S,5R)-5-[(R)-hydroxy(phenyl)methyl]pyrrolidin-2-yl}methyl)phenyl]amino}-1-methyl-2-oxoethyl)benzamide]: the pEC50 under setting [3] is > 9.00. The same measure, in the same setting: the value for `C[C@H](NS(=O)(=O)c1ccc(F)cc1)C(=O)Nc1ccc(C[C@@H]2CC[C@H]([C@H](O)c3ccccc3)N2)cc1` [Example 264, (2S)-2-{[(4-Fluorophenyl)sulfonyl]amino}-N-[4-({(2S,5R)-5-[(R)-hydroxy(phenyl)methyl]pyrrolidin-2-yl}methyl)phenyl]propanamide] was 7.00 to 7.96. `CC(C(=O)Nc1ccc(C[C@@H]2CC[C@H]([C@H](O)c3ccccc3)N2)cc1)N(C)C(=O)c1ccccn1` (stereo partly shown) [Example 265]: the pEC50 under setting [6] is 6.00 to 7.00. Same read-out and setting: the value for `CC(NC(=O)c1c(F)cccc1F)C(=O)Nc1ccc(C[C@@H]2CC[C@H]([C@H](O)c3ccccc3)N2)cc1` (stereo partly shown) [Example 267] was > 9.00; that for `CC(NC(=O)c1ncccn1)C(=O)Nc1ccc(C[C@@H]2CC[C@H]([C@H](O)c3ccccc3)N2)cc1` (stereo partly shown) [Example 268] was > 9.00. For `CC(NC(=O)c1cnccn1)C(=O)Nc1ccc(C[C@@H]2CC[C@H]([C@H](O)c3ccccc3)N2)cc1` (stereo partly shown) [Example 269], the pEC50 under setting [6] was 8.00 to 9.00. On the same count and under the same terms, the value for `CC(N)C(=O)Nc1ccc(C[C@@H]2CC[C@H]([C@H](O)c3ccccc3)N2)cc1` (stereo partly shown) [Example 270] was 7.00 to 7.96; that for `CC(NC(=O)c1cc[nH]n1)C(=O)Nc1ccc(C[C@@H]2CC[C@H]([C@H](O)c3ccccc3)N2)cc1` (stereo partly shown) [Example 271] was > 9.00; that for `CC(NC(=O)c1ccccc1)C(=O)Nc1ccc(C[C@@H]2CC[C@H]([C@H](O)c3ccccc3)N2)cc1` (stereo partly shown) [Example 272] was > 9.00. Still for that read-out and setting: the value for `CC(NS(=O)(=O)Cc1ccccc1)C(=O)Nc1ccc(C[C@@H]2CC[C@H]([C@H](O)c3ccccc3)N2)cc1` (stereo partly shown) [Example 273] was 7.00 to 7.96.

Values taken from US8399480B2, “Hydroxymethyl pyrrolidines as beta 3 adrenergic receptor agonists” (Merck Sharp & Dohme Corp., priority 2008, dated 2013).
